Data from ChEMBL document CHEMBL6103664, “Novel Pyrimidinyl Sulfonamide Derivatives as GPR17 Modulators” (ACS Med Chem Lett, 2025).

Tests used:
Type in all cases: ADME, Microsome
Settings in all cases: time 55 min
[1] = Clearance in human microsomes assessed per mg protein at 1 uM preincubated for 10 mins followed by NADPH addition and measured after 1 to 45 mins by LC-MS/MS analysis
[2] = Clearance in mouse microsomes assessed per mg protein at 1 uM preincubated for 10 mins followed by NADPH addition and measured after 1 to 45 mins by LC-MS/MS analysis
[3] = Clearance in rat microsomes assessed per mg protein at 1 uM preincubated for 10 mins followed by NADPH addition and measured after 1 to 45 mins by LC-MS/MS analysis

Molecule `COc1nc(NS(=O)(=O)c2c[nH]c(-c3ncccc3F)c2)nc(OC)c1OCCF` has a microsomal CLint at 1 µM [1] of 10 µL/min/mg, a microsomal CLint at 1 µM [2] of 12 µL/min/mg and a microsomal CLint at 1 µM [3] of 32 µL/min/mg.
Molecule `COc1nc(NS(=O)(=O)c2c[nH]c(-c3nccs3)c2)nc(OC)c1OC(F)F` has a microsomal CLint at 1 µM [1] of 10 µL/min/mg, a microsomal CLint at 1 µM [2] of 10 µL/min/mg and a microsomal CLint at 1 µM [3] of 50 µL/min/mg.
For `COc1nc(NS(=O)(=O)c2c[nH]c(-c3ccccc3)c2)nc(OC)c1OCC(F)F`, the microsomal CLint at 1 µM [1] was 10 µL/min/mg, the microsomal CLint at 1 µM [2] was 21 µL/min/mg and the microsomal CLint at 1 µM [3] was 81 µL/min/mg.
